From ChEMBL document CHEMBL1201862, “PubChem BioAssay data set” (2004)
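Briefly, cells in 96-well plates were exposed to five compound concentrations for 48 h, and endpoints were estimated by linear interpolation. GI50 is the concentration that inhibits growth by half.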 The source made the active and inactive calls. Rule as the data show it: active = GI50 up to about 1.1 µM and inactive = higher.

How the values were obtained:
Assay in all cases: DTP human tumour cell line panel, 48 h
LOX IMVI = tested on: LOX IMVI
SK-OV-3 = tested on: SK-OV-3
EKVX = tested on: EKVX
SN12C = tested on: SN12C
Malme-3M = tested on: Malme-3M
LXFL 529 = tested on: LXFL 529
HL-60 = tested on: HL-60
CCRF-CEM = tested on: CCRF-CEM
ACHN = tested on: ACHN
DMS-114 = tested on: DMS-114
OVCAR-5 = tested on: OVCAR-5
HOP-18 = tested on: HOP-18
KM12 = tested on: KM12
M14 = tested on: M14
HOP-62 = tested on: HOP-62
UACC-62 = tested on: UACC-62
HT-29 = tested on: HT-29
SK-MEL-2 = tested on: SK-MEL-2
HCT-15 = tested on: HCT-15
SF-539 = tested on: SF-539
SNB-78 = tested on: SNB-78
HCC 2998 = tested on: HCC 2998
UACC-257 = tested on: UACC-257
UO-31 = tested on: UO-31
786-0 = tested on: 786-0
SNB-75 = tested on: SNB-75
NCI-H23 = tested on: NCI-H23
SNB-19 = tested on: SNB-19
KM-20L2 = tested on: KM-20L2
RPMI-8226 = tested on: RPMI-8226
MOLT-4 = tested on: MOLT-4
SK-MEL-5 = tested on: SK-MEL-5
CAKI-1 = tested on: CAKI-1
OVCAR-3 = tested on: OVCAR-3
SF-268 = tested on: SF-268
OVCAR-4 = tested on: OVCAR-4
TK-10 = tested on: TK-10
K562 = tested on: K562
COLO 205 = tested on: COLO 205
DLD-1 = tested on: DLD-1
OVCAR-8 = tested on: OVCAR-8
IGROV-1 = tested on: IGROV-1
DMS-273 = tested on: DMS-273
HCT-116 = tested on: HCT-116
A549 = tested on: A549
SW-620 = tested on: SW-620
RXF 393 = tested on: RXF 393
U-251 = tested on: U-251
NCI-H460 = tested on: NCI-H460
M19-MEL = tested on: M19-MEL
SF-295 = tested on: SF-295
NCI-H522 = tested on: NCI-H522
A498 = tested on: A498
SK-MEL-28 = tested on: SK-MEL-28
XF498 = tested on: XF498
HOP-92 = tested on: HOP-92
NCI-H226 = tested on: NCI-H226
SR = tested on: SR

CCOC(C)OCC#CCCBr (centres undefined)
GI50 (LOX IMVI): > 100 µM (inactive) | GI50 (SK-OV-3): > 100 µM (inactive) | GI50 (EKVX): > 100 µM (inactive) | GI50 (SN12C): > 100 µM (inactive) | GI50 (Malme-3M): > 100 µM (inactive) | GI50 (LXFL 529): > 100 µM (inactive) | GI50 (HL-60): 80.5 µM (inactive) | GI50 (CCRF-CEM): 37.1 µM (inactive) | GI50 (ACHN): > 100 µM (inactive) | GI50 (DMS-114): 79.1 µM (inactive) | GI50 (OVCAR-5): > 100 µM (inactive) | GI50 (HOP-18): > 100 µM (inactive) | GI50 (KM12): > 100 µM (inactive) | GI50 (M14): > 100 µM (inactive) | GI50 (HOP-62): > 100 µM (inactive) | GI50 (UACC-62): > 100 µM (inactive) | GI50 (HT-29): > 100 µM (inactive) | GI50 (SK-MEL-2): > 100 µM (inactive) | GI50 (HCT-15): > 100 µM | GI50 (SF-539): > 100 µM (inactive) | GI50 (SNB-78): > 100 µM (inactive) | GI50 (HCC 2998): > 100 µM (inactive) | GI50 (UACC-257): > 100 µM (inactive) | GI50 (UO-31): > 100 µM (inactive) | GI50 (786-0): > 100 µM (inactive) | GI50 (SNB-75): 55.3 µM (inactive) | GI50 (NCI-H23): > 100 µM (inactive) | GI50 (SNB-19): > 100 µM (inactive) | GI50 (KM-20L2): > 100 µM (inactive) | GI50 (RPMI-8226): > 100 µM (inactive) | GI50 (MOLT-4): > 100 µM (inactive) | GI50 (SK-MEL-5): > 100 µM (inactive) | GI50 (CAKI-1): > 100 µM (inactive) | GI50 (OVCAR-3): > 100 µM (inactive) | GI50 (SF-268): > 100 µM (inactive) | GI50 (OVCAR-4): > 100 µM (inactive) | GI50 (TK-10): > 100 µM (inactive) | GI50 (K562): 59.7 µM (inactive) | GI50 (COLO 205): > 100 µM (inactive) | GI50 (DLD-1): > 100 µM (inactive) | GI50 (OVCAR-8): > 100 µM (inactive) | GI50 (IGROV-1): > 100 µM (inactive) | GI50 (DMS-273): > 100 µM (inactive) | GI50 (HCT-116): > 100 µM (inactive) | GI50 (A549): > 100 µM (inactive) | GI50 (SW-620): > 100 µM (inactive) | GI50 (RXF 393): > 100 µM (inactive) | GI50 (U-251): > 100 µM (inactive) | GI50 (NCI-H460): > 100 µM (inactive) | GI50 (M19-MEL): > 100 µM (inactive) | GI50 (SF-295): > 100 µM (inactive)

Nc1ccccc1[S+]([O-])c1ccccc1 (centres undefined)
GI50 (LOX IMVI): > 100 µM (inactive) | GI50 (SK-OV-3): > 100 µM (inactive) | GI50 (EKVX): > 100 µM (inactive) | GI50 (SN12C): > 100 µM (inactive) | GI50 (Malme-3M): > 100 µM (inactive) | GI50 (LXFL 529): > 100 µM (inactive) | GI50 (HL-60): > 100 µM (inactive) | GI50 (CCRF-CEM): > 100 µM (inactive) | GI50 (ACHN): > 100 µM (inactive) | GI50 (DMS-114): > 100 µM (inactive) | GI50 (OVCAR-5): > 100 µM (inactive) | GI50 (HOP-18): > 100 µM (inactive) | GI50 (KM12): > 100 µM (inactive) | GI50 (M14): > 100 µM (inactive) | GI50 (HOP-62): > 100 µM (inactive) | GI50 (UACC-62): > 100 µM (inactive) | GI50 (SK-MEL-2): > 100 µM (inactive) | GI50 (HCT-15): > 100 µM | GI50 (SF-539): > 100 µM (inactive) | GI50 (NCI-H522): > 100 µM (inactive) | GI50 (HCC 2998): > 100 µM (inactive) | GI50 (UO-31): > 100 µM (inactive) | GI50 (786-0): > 100 µM (inactive) | GI50 (SNB-75): > 100 µM (inactive) | GI50 (A498): > 100 µM (inactive) | GI50 (NCI-H23): > 100 µM (inactive) | GI50 (SNB-19): > 100 µM (inactive) | GI50 (SK-MEL-28): > 100 µM (inactive) | GI50 (KM-20L2): > 100 µM (inactive) | GI50 (RPMI-8226): > 100 µM (inactive) | GI50 (MOLT-4): > 100 µM (inactive) | GI50 (XF498): > 100 µM (inactive) | GI50 (HOP-92): 39.2 µM (inactive) | GI50 (SK-MEL-5): > 100 µM (inactive) | GI50 (OVCAR-3): > 100 µM (inactive) | GI50 (SF-268): > 100 µM (inactive) | GI50 (OVCAR-4): > 100 µM (inactive) | GI50 (NCI-H226): > 100 µM (inactive) | GI50 (TK-10): > 100 µM (inactive) | GI50 (K562): > 100 µM (inactive) | GI50 (COLO 205): > 100 µM (inactive) | GI50 (OVCAR-8): > 100 µM (inactive) | GI50 (IGROV-1): > 100 µM (inactive) | GI50 (DMS-273): > 100 µM (inactive) | GI50 (HCT-116): > 100 µM (inactive) | GI50 (A549): > 100 µM (inactive) | GI50 (SW-620): > 100 µM (inactive) | GI50 (RXF 393): > 100 µM (inactive) | GI50 (U-251): > 100 µM (inactive) | GI50 (NCI-H460): > 100 µM (inactive) | GI50 (M19-MEL): > 100 µM (inactive) | GI50 (SF-295): > 100 µM (inactive)

Cc1cc(C)c2c(c1)CN1CN2Cc2cc(C)cc(C)c21
GI50 (LOX IMVI): 17 µM (inactive) | GI50 (SK-OV-3): 27.8 µM (inactive) | GI50 (EKVX): 16.9 µM (inactive) | GI50 (SN12C): 16.9 µM (inactive) | GI50 (LXFL 529): 32.7 µM (inactive) | GI50 (HL-60): 26.4 µM (inactive) | GI50 (CCRF-CEM): 24.6 µM (inactive) | GI50 (ACHN): 18 µM (inactive) | GI50 (OVCAR-5): 55.1 µM (inactive) | GI50 (HOP-18): 36.4 µM (inactive) | GI50 (KM12): 18.2 µM (inactive) | GI50 (M14): 18.2 µM (inactive) | GI50 (HOP-62): 18.7 µM (inactive) | GI50 (UACC-62): 16 µM (inactive) | GI50 (SR): 18.8 µM (inactive) | GI50 (HT-29): 16.3 µM (inactive) | GI50 (SK-MEL-2): > 10 µM (inactive) | GI50 (HCT-15): > 10 µM | GI50 (SF-539): > 10 µM (inactive) | GI50 (NCI-H522): 29 µM (inactive) | GI50 (SNB-78): 17.5 µM (inactive) | GI50 (UO-31): 24.4 µM (inactive) | GI50 (786-0): 17.2 µM (inactive) | GI50 (SNB-75): 4.36 µM (inactive) | GI50 (NCI-H23): 20.8 µM (inactive) | GI50 (SNB-19): < 0.01 µM (active) | GI50 (SK-MEL-28): 16.5 µM (inactive) | GI50 (RPMI-8226): 19.9 µM (inactive) | GI50 (MOLT-4): 22.4 µM (inactive) | GI50 (XF498): 18.2 µM (inactive) | GI50 (HOP-92): > 10 µM (inactive) | GI50 (CAKI-1): 34.1 µM (inactive) | GI50 (OVCAR-3): 14.8 µM (inactive) | GI50 (SF-268): 31.6 µM (inactive) | GI50 (OVCAR-4): 18.3 µM (inactive) | GI50 (NCI-H226): 26 µM (inactive) | GI50 (TK-10): 19 µM (inactive) | GI50 (K562): 27.7 µM (inactive) | GI50 (COLO 205): 22.1 µM (inactive) | GI50 (DLD-1): 24.7 µM (inactive) | GI50 (OVCAR-8): 17.8 µM (inactive) | GI50 (IGROV-1): 23.4 µM (inactive) | GI50 (DMS-273): 18.9 µM (inactive) | GI50 (HCT-116): 19.4 µM (inactive) | GI50 (A549): 27.2 µM (inactive) | GI50 (SW-620): 31.5 µM (inactive) | GI50 (RXF 393): 6.68 µM (inactive) | GI50 (U-251): 17.5 µM (inactive) | GI50 (NCI-H460): 15.9 µM (inactive) | GI50 (M19-MEL): 23 µM (inactive) | GI50 (SF-295): 18.7 µM (inactive)
